# Measurements taken from ChEMBL document CHEMBL1142553, “A new vitamin E (alpha-tocomonoenol) from eggs of the Pacific salmon Oncorhynchus keta” (J Nat Prod, 1999).
# Calls of active or inactive are those of the source. The calls are words filed in the database; no cut-off is given here.
# Experiments:
# Type in all cases: functional
# [1] = Antioxidant activity in methanolic solution at 83 uM at 37 degC
# [2] = Antioxidant activity assessed as inhibition of rate of formation of phosphatidylcholine hydroperoxides at 2.2 uM by phosphatidylcholine oxidation assay
# [3] = Antioxidant activity assessed as inhibition of rate of formation of phosphatidylcholine hydroperoxides at 1.9 uM by phosphatidylcholine oxidation assay
Compound,Activity [1],Activity [2],Activity [3]
Cc1c(C)c2c(c(C)c1O)CC[C@@](C)(CCC[C@H](C)CCC[C@H](C)CCCC(C)C)O2,Active,Active,
C=C(C)CCC[C@@H](C)CCC[C@@H](C)CCC[C@]1(C)CCc2c(C)c(O)c(C)c(C)c2O1,Active,,Active
